The text below walks through data of article PMC11752523, “Effect of Chirality and Amphiphilicity on the Antimicrobial Activity of Tripodal Lysine-Based Peptides” (ACS Applied Bio Materials, 2025).

SMILES strings stand for the structures. In brackets after ≈: the same amount, converted by molar mass. Entries after “also recorded” stand apart in the source; their conditions may differ. Where two headings read alike, the source gives them in different places. Numbered stars: 1 amine (or outer) side, 2 acyl side, 3 side chain; on linkers, the order of the positions; unused ones are H or OH. Bridge positions count the residues as written; N and C are the ends. Square brackets hold non-standard residues; d marks the D form. Side chains are listed from the residue outwards. Peptide text beside a SMILES is read from it. * marks the point of attachment. d(εLys) = N[C@H](CCCCN[*:1])C(=O)[*:2]; εLys = N[C@@H](CCCCN[*:1])C(=O)[*:2]; Fmoc = O=C(OCC1c2ccccc2-c2ccccc21)*; X1 = CC[C@H](C)CCCCC(=O)*; Dab = NCC[C@H](N)C(=O)O A value given as a limit tells only on which side of the number the result lay.

Data set [1] in a line: Critical aggregation concentration by ANS fluorescence probe assay. It is filed as physicochemical. The settings on record: emission 486 nm, breakpoint of I/I0 vs log(c/wt %), aqueous solution in ultrapure water, pH 6.5. The protocol:
Fluorescence experiments were carried out as described previously.[35]
To determine the CAC value of individual peptides, the results were plotted as I/I0 versus log(c/wt %), where I indicates the maximum fluorescence intensity of ANS at a given sample concentration and I0 denotes the peak intensity for the ANS solution without peptide.
Critical aggregation concentration (CAC) values of the tripodal peptides were obtained from fluorescence probe assays using 8-anilo-1-naphthalenesulfonic acid (ANS).

A short description of data set [2]: Cryo-TEM imaging of self-assembled nanostructure. It is filed as physicochemical. The settings on record: 1 wt % aqueous solutions, above CAC. The protocol: Imaging was carried out as described previously.[35],[75]
To examine the morphology of the self-assembled nanostructure of these three arm trifunctional peptides, cryo-TEM imaging was performed for 1 wt % solutions, above the measured CAC values. […] In many cases, these structures are deposited on the lacey carbon grid in preference to, or in addition to, the vitrified grid holes.

Data set [3] deals with L929 murine fibroblast cells. Put plainly: MTT cell viability (cytocompatibility) assay. To be noted: L929 murine fibroblasts, after 48 h, n = 3. In kind it is cell-based. The protocol: L929 murine fibroblast cells (ECACC General Cell Collection) were grown in Dulbecco’s modified Eagle’s medium (DMEM) supplemented with 10% fetal bovine serum (FBS), 20 mM HEPES, and 1% GlutaMAX. The cells were maintained at pH 7.4, 37 °C, and 5% CO2 in 25 cm^2 cell culture flasks.
Assays were conducted as described previously.[23]
To be of utility as practical antimicrobials, bioactive molecules must show selective activity compared to their toxicity toward mammalian cells. The cytocompatibility of our peptides was investigated by a cell metabolic activity assay using MTT [3-(4,5-dimethylthiazol-2-yl)-2,5-diphenyltetrazolium bromide] assays using L929 murine fibroblast cell lines.
Figure 6 Cell viability data (with L929 murine fibroblasts) of tripodal peptides: (a) TP, (b) DTP, (c) FTP, and (d) FDTP. The error bar corresponds to the standard deviation of the value from the mean (n = 3, *p < 0.05, **p < 0.01 by performing the Anova statistical test).

The subject of data set [4] is E. coli O157:H7 strain EDL933.
Data set [5] relates to Pseudomonas aeruginosa (NCTC 13437), clinical multidrug-resistant isolate.
Data set [6] concerns Salmonella enterica serovar Typhimurium. The settings on record: 24 h.
For another data set, the system named is S. aureus (ATCC 12600). To be noted: ATCC 12600, 24 h.
The test system of data set [7] is human red blood cells (hRBCs). To be noted: 0.5% (v/v) hRBCs in PBS, peptide 0–0.1 wt %, 1 h, hemoglobin at 414 nm, normalised to 0.1% Triton X-100; mean of three independent experiments.
Data set [8] concerns E. coli EDL933 bacterial membrane. Put plainly: Bacteria live/dead (DMAO/EthD-III) staining, fluorescence microscopy. It is filed as cell-based, Escherichia coli. The settings on record: E. coli EDL933 treated at MBC for 1 h at 37 °C; DMAO green / EthD-III red. The protocol: Dual staining of peptide-treated bacteria, to detect potential membrane disruption,[80] was performed using a bacteria live/dead staining kit (PromoKine). This process involves incubating samples with fluorescent, nucleic acid dyes (DMAO, green, and EthD-III, red) that, respectively, are either able or unable to cross the bacterial membrane. […] Next, they were incubated with set volumes of both dyes for 15 min at room temperature. Slides were mounted using 5 μL of the stained solution onto glass coverslips and observed under a Nikon Eclipse Ti inverted microscope using a 10× objective. Images of different treatments, including controls were captured and compared.
Figure 8 DMAO/EtD-III stained images showing the peptide effects on the integrity of the bacterial membrane. Fluorescence microscopy was used to visualize DMAO and EtD-III dyes binding to the bacterial DNA. In this experiment, E. coli EDL933 was incubated with peptides at their minimum bactericidal concentration (MBC) for 1 h at 37 °C, followed by staining with a bacteria live/dead staining kit (PromoKine). Cells with disrupted membranes are stained red (EtD-III), while cells with intact membranes are stained green (DMAO).

Another data set deals with E. coli EDL933. In words: SEM imaging of peptide-treated bacteria. It is filed as cell-based, Escherichia coli. The settings on record: E. coli EDL933, peptide at MBC (31.25 μg/mL), 1 h at 37 °C.
The next data set concerns Klebsiella aerogenes. To be noted: 24 h.
The mark [9] stands for this setting: E. coli O157:H7 EDL933, 24 h incubation, 5 × 10^6 CFU/mL, absorbance 600 nm, mean of three independent experiments.
Where [10] appears, read: E. coli O157:H7 EDL933, 24 h incubation, aliquots plated on MHA, no viable colonies.
The mark [11] stands for this setting: P. aeruginosa NCTC13437, 24 h incubation, 5 × 10^6 CFU/mL, absorbance 600 nm, mean of three independent experiments.
[12] abbreviates: P. aeruginosa NCTC13437, 24 h incubation, aliquots plated on MHA, no viable colonies.

As to `NCCCC[C@@H](N)C(=O)N[C@H](CCCCN)C(=O)N[C@@H](Cc1ccc(O)cc1)C(=O)NCCCC[C@H](NC(=O)[C@H](Cc1ccc(O)cc1)NC(=O)[C@@H](CCCCN)NC(=O)[C@H](N)CCCCN)C(=O)N[C@@H](Cc1ccc(O)cc1)C(=O)N[C@H](CCCCN)C(=O)N[C@H](CCCCN)C(N)=O` [DTP, (kkY)3K] (H-[dK][dK]YK([Tyr-dK-dK])Y[dK][dK]-NH2), the “Critical aggregation concentration (CAC)” value in data set [1] was 0.0069 ± 0.002 wt %. Also, the “Morphology of self-assembled nanostructure (cryo-TEM)” value (shortened to “Morphology … (cryo-TEM)”) in [2] is given as “irregular globular aggregates”. Further, the “Cell viability / cytotoxicity (MTT)” value in data set [3] was “nor do they or reduce the viability of fibroblasts”. Moreover, the minimum inhibitory concentration (MIC) (as a rule, the smallest concentration in the dilution series that meets the test's criterion for growth inhibition) in [4] (setting [9]) was 500 µg/mL (≈ 356 µM); in data set [5] (setting [11]), above 1000 µg/mL; in [6], above 1000 µg/mL; with S. aureus (ATCC 12600), above 1000 µg/mL. In addition, the MBC (usually the lowest tested concentration that kills the bacteria rather than only halting them) was 1000 µg/mL (≈ 712 µM) in [4] (setting [10]), above 1000 µg/mL in data set [5] (setting [12]), above 1000 µg/mL in data set [6] and above 1000 µg/mL in the data set on S. aureus (ATCC 12600). Also, in [7], the “Hemolysis of hRBCs” value is “did not lyse hRBCs”.
As to `NCCCC[C@@H](NC(=O)[C@@H](CCCCN)NC(=O)[C@H](Cc1ccc(O)cc1)NC(=O)[C@H](CCCCNC(=O)[C@H](Cc1ccc(O)cc1)NC(=O)[C@@H](CCCCN)NC(=O)[C@H](N)CCCCNC(=O)OCC1c2ccccc2-c2ccccc21)NC(=O)[C@H](Cc1ccc(O)cc1)NC(=O)[C@@H](CCCCN)NC(=O)[C@H](N)CCCCNC(=O)OCC1c2ccccc2-c2ccccc21)C(N)=O` [FDTP, Fmoc-(kkY)3K] (H-[dK](Fmoc)[dK]YK([Tyr-dK-d(εLys)-Fmoc])Y[dK][dK]-NH2), in [1], the “Critical aggregation concentration (CAC)” value is 0.0123 ± 0.003 wt %. In [2], the “Morphology … (cryo-TEM)” value was “irregular globular aggregates”. Moreover, the “Cell viability / cytotoxicity (MTT)” value in [3] is listed as “death of fibroblasts; also recorded: cytotoxicity at the two highest concentrations studied”. Also, the “Effect on integrity of the bacterial membrane (live/dead staining)” value in [8] is “rapid, membrane-targeting effects”. For the same compound, the “Bacterial surface morphology by SEM” value is recorded as “Significant disruption of the surface of the bacteria” with E. coli EDL933 and “collapsed shapes” in the data set with E. coli EDL933 (listed as FTDP). Moreover, the MIC in data set [4] (setting [9]) came out at 15.62 µg/mL (≈ 8.45 µM); in data set [5] (setting [11]), 125 µg/mL (≈ 67.6 µM); in data set [6] it was 250 µg/mL (≈ 135 µM); against Klebsiella aerogenes it was 62.5 µg/mL (≈ 33.8 µM); with S. aureus (ATCC 12600), 31.2 µg/mL (≈ 16.9 µM). Further, the minimal bactericidal concentration (MBC) amounted to 31.25 µg/mL (≈ 16.9 µM) in data set [4] (setting [10]); 250 µg/mL (≈ 135 µM) in data set [5] (setting [12]); 500 µg/mL (≈ 271 µM) in [6]; 62.5 µg/mL (≈ 33.8 µM) in the data set on Klebsiella aerogenes; 62.5 µg/mL (≈ 33.8 µM) with S. aureus (ATCC 12600). For the same compound, the “Hemolysis of hRBCs” value in [7] is recorded as “greater leakage of hRBCs”.
Regarding `NCCCC[C@H](NC(=O)[C@H](CCCCN)NC(=O)[C@H](Cc1ccc(O)cc1)NC(=O)[C@H](CCCCNC(=O)[C@H](Cc1ccc(O)cc1)NC(=O)[C@H](CCCCN)NC(=O)[C@@H](N)CCCCNC(=O)OCC1c2ccccc2-c2ccccc21)NC(=O)[C@H](Cc1ccc(O)cc1)NC(=O)[C@H](CCCCN)NC(=O)[C@@H](N)CCCCNC(=O)OCC1c2ccccc2-c2ccccc21)C(N)=O` [FTP, Fmoc-(KKY)3K] (H-K(Fmoc)KYK([Tyr-Lys-εLys-Fmoc])YKK-NH2), the “Critical aggregation concentration (CAC)” value in data set [1] is 0.0113 ± 0.005 wt %. Further, in [2], the “Morphology … (cryo-TEM)” value was “sheet-like structures”. Besides, the “Effect on integrity of the bacterial membrane (live/dead staining)” value in data set [8] is listed as “rapid, membrane-targeting effects”. For the same compound, the MIC in [4] (setting [9]) turned out to be 62.5 µg/mL (≈ 33.8 µM); in data set [5] (setting [11]), 125 µg/mL (≈ 67.6 µM); in data set [6], 250 µg/mL (≈ 135 µM); in the data set with Klebsiella aerogenes, 62.5 µg/mL (≈ 33.8 µM); against S. aureus (ATCC 12600) it was 125 µg/mL (≈ 67.6 µM). The MBC came to 125 µg/mL (≈ 67.6 µM) in data set [4] (setting [10]); 250 µg/mL (≈ 135 µM) in data set [5] (setting [12]); 500 µg/mL (≈ 271 µM) in [6]; 62.5 µg/mL (≈ 33.8 µM) in the data set on Klebsiella aerogenes; 250 µg/mL (≈ 135 µM) with S. aureus (ATCC 12600).
Take `NCCCC[C@H](NC(=O)[C@H](CCCCN)NC(=O)[C@H](Cc1ccc(O)cc1)NC(=O)[C@H](CCCCNC(=O)[C@H](Cc1ccc(O)cc1)NC(=O)[C@H](CCCCN)NC(=O)[C@@H](N)CCCCN)NC(=O)[C@H](Cc1ccc(O)cc1)NC(=O)[C@H](CCCCN)NC(=O)[C@@H](N)CCCCN)C(N)=O` [TP, (KKY)3K] (H-KKYK([Tyr-Lys-Lys])YKK-NH2): in [1], the “Critical aggregation concentration (CAC)” value worked out at 0.0065 ± 0.004 wt %. Moreover, in data set [2], the “Morphology … (cryo-TEM)” value was “irregular globular aggregates”. Besides, the “Cell viability / cytotoxicity (MTT)” value in data set [3] is “nor do they or reduce the viability of fibroblasts”. Further, in [4] (setting [9]), the MIC is above 1000 µg/mL. Further, in [4] (setting [10]), the MBC was above 1000 µg/mL. For the same compound, in data set [7], the “Hemolysis of hRBCs” value is reported as “did not lyse hRBCs”.
In the case of `CC[C@H](C)CCCCC(=O)N[C@@H](CCN)C(=O)N[C@H](C(=O)N[C@@H](CCN)C(=O)N[C@H]1CCNC(=O)[C@H]([C@@H](C)O)NC(=O)[C@H](CCN)NC(=O)[C@H](CCN)NC(=O)[C@H](CC(C)C)NC(=O)[C@@H](Cc2ccccc2)NC(=O)[C@H](CCN)NC1=O)[C@@H](C)O` [polymyxin B, reference compound] (X1-[Dab]T[Dab][Dab][Dab][dF]L[Dab][Dab]T; lactam 4-C (inferred); N-terminus assumed), the MBC in data set [4] (O157:H7, 24 h) was 6.25 µg/mL (≈ 5.19 µM); in data set [5] (NCTC 13437, 24 h) it was 25 µg/mL (≈ 20.8 µM); in data set [6], 12.5 µg/mL (≈ 10.4 µM); against Klebsiella aerogenes, 6.25 µg/mL (≈ 5.19 µM); with S. aureus (ATCC 12600), above 100 µg/mL. Moreover, the MIC in [4] (O157:H7, 24 h) was 3.12 µg/mL (≈ 2.59 µM); in data set [5] (NCTC 13437, 24 h), 6.25 µg/mL (≈ 5.19 µM); in data set [6], 6.25 µg/mL (≈ 5.19 µM); with Klebsiella aerogenes, 3.12 µg/mL (≈ 2.59 µM); with S. aureus (ATCC 12600), above 100 µg/mL.
